Results published in patent US20130212738A1, “COMPOSITION FOR PHYTOCHELATIN TRANSPORT” (POSTECH ACADEMY-INDUSTRY FOUNDATION, priority 2010, published 2013).

Columns and labels:
AtABCC2 = biological target: T1, AtABCC2 (Arabidopsis thaliana, UniProt Q42093); assay type: biochemical, A. thaliana
T1 construct: expressed in transfected cells; host or cells: Saccharomyces cerevisiae SM7 (ycf1/yhl035c/yll015w/yll048c-deficient, expressing TaPCS1); microsomal vesicles

AtABCC1 = biological target: T2, AtABCC1 (Arabidopsis thaliana, UniProt Q9C8G9); assay: PC2 transport into microsomal vesicles of SM7 yeast expressing AtABCC1; assay type: biochemical, A. thaliana; conditions: vanadate 1 mM, NH4Cl 5 mM, PC 25 μM
T2 construct: expressed in transfected cells; host or cells: Saccharomyces cerevisiae SM7 (ycf1/yhl035c/yll015w/yll048c-deficient, expressing TaPCS1); microsomal vesicles

[1] = tested on: A. thaliana mesophyll vacuoles; assay: PC2 transport into intact vacuoles isolated from A. thaliana mesophyll protoplasts; assay type: biochemical
[2] = biological target: PC2-As complex (phytochelatin PC2 in complex with As(III)); assay: cell-based or functional assay
[3] = tested on: atabcc1 atabcc2 double knock-out A. thaliana; conditions: in vivo

Row | Compound | concentration of PC at half maximum of the absorption (transport) activities, 35S-PC2 uptake into yeast SM7 microsomal vesicles [2] | growth of the atabcc1 atabcc2 knock-out line compared with the wild type [3] | further results
1 | arsenite |  |  | transport of arsenic in a non-chelated form (ICP-MS) (AtABCC2): not transported
2 | [O]=[V]([O-])([O-])[O-] [vanadate] |  |  | inhibition of absorption of PC2—As complex into the yeast vesicle (AtABCC2): remarkably reduced; inhibition of absorption of PC2—As complex into the yeast vesicle (AtABCC1): remarkably reduced; residual transport activity (PC transport of isolated vacuoles) [1]: 25±7%
3 | AtABCC1 (from UniProt Q9C8G9 1-1622) | 350 µM |  | 
4 | AtABCC2 (from UniProt Q42093 1-1623) | 350 µM |  | 
5 | [Cd] [Cd, cadmium] |  | dramatically inhibited | 
6 | O=[As]([O-])([O-])O.[Na+].[Na+] [As(V), Na2HAsO4] |  | dramatically inhibited | 
